Molecules are shown by their SMILES. Values joined by “and” are separate entries in the source; they are usually repeats but may differ in a detail not shown here. Equal entries are not always repeated. Where two headings read alike, the source gives them in different places.

The values below come from patent publication US7588903B2, “Use of isogenic drug-resistant cell lines to determine the sequence of chemotherapeutic drug treatment” (priority 2003, dated 2009).

Data set [1] relates to MCF-7DOX cells. The data set is classed as cell-based. As to conditions: for resistance factor (IC50 for MCF-7DOX cells divided by IC50 for MCF-7 cells): 24 h drug treatment, clonogenic assay. An excerpt:
(§1) Twice weekly, nonadherent (dead) cells were removed by discarding the existing medium and replacing it with fresh, drug-containing medium. […] At the end of the two-week period, all remaining viable cells were released by trypsinization, diluted 10-fold into PBS, and harvested by centrifugation. The cells were resuspended in fresh H-21 medium, with several aliquots removed for storage and future analysis. […] Nonadherent dead cells were again removed as described above and the process repeated until a drug dose was reached where all cells in the population were killed. Cells that grew at the maximally-tolerated drug concentrations were deemed to be “terminally selected”.
(§2) Thus, the concentration of valspodar used in some experiments was increased to 10 μM.
(§3) Briefly, 5 ml of H21 medium with 10% fetal bovine serum was introduced into 12 tissue culture flasks (25 cm^2 area) and each flask seeded with 2.5×10^5 cells. […] Each sample was vortexed vigorously for 10 s to ensure even distribution of cells within the viscous medium. 1.2 ml of each cellular suspension were placed into 6 well plates and incubated for a minimum of one week at 37° C./5% CO2 until large colonies of cells were visible.

The test system of data set [2] is MCF-7TAX cells. The format is cell-based. As to conditions: for resistance factor (IC50 for MCF-7TAX cells divided by IC50 for MCF-7 cells): 24 h drug treatment, clonogenic assay.
Source text: as §1, §2, §3

Data set [3] deals with MCF-7DOX cells. The experiment in a line: [3H]-paclitaxel / [14C]-5-fluorouracil accumulation by liquid scintillation. The following applies: 10 nM paclitaxel, 24 hours.
In another data set the test system is procaspase-7. Nature of the data set: Immunoblotting of whole cell extracts of MCF-7 cells after drug treatment. The format is cell-based, human. As to conditions: 24 h drug treatment. As for the experimental part: (§4) Extraction of proteins from whole cells was performed using RIPA buffer [1% Nonidet P-40, 0.5% sodium deoxycholate, 0.1% SDS, and 1 Complete™ protease inhibitor tablet (Roche Pharmaceuticals, Baie d'Urfe, QC) in 50 ml of PBS]. Prior to use, the RIPA buffer was supplemented with sodium orthovanadate and phenylmethylsulfonyl fluoride at final concentrations of 1 mM and 0.1 mg/ml, respectively. Cultured cells were grown as a monolayer and allowed to reach 70-90% confluence in 10 cm tissue culture plates. Twenty-four hours prior to extraction, some plates of cells were treated with 9 nM doxorubicin or 0.56 nM paclitaxel. After drug treatment, the medium was removed and the cells rinsed twice with PBS. All further steps were carried out on ice to minimize denaturation/proteolysis of the proteins. Chilled RIPA buffer (0.6 ml) was added to each plate, after which the cells were scraped from the plate using a Teflon tape-coated razor blade, and transferred to a 1.5 ml microfuge tube. An additional 0.3 ml of RIPA buffer was added to the plate and the resultant suspension was combined with the lysate. The sample was then passed repeatedly through a 21 gauge needle to lyse the cells and shear any DNA present. The lysates were then incubated on ice for 30 minutes, after which they were clarified by centrifugation at 15,000 g for 20 minutes at 4° C. The supernatants were then removed, mixed well, and aliquots placed in 0.5 ml microfuge tubes and stored at −80° C.
(§5) Proteins ([…]) from whole cell extracts were loaded into each lane of a 10% SDS-polyacrylamide gel, on duplicate gels. After electrophoresis, one of the gels was stained with Coomassie Brilliant Blue R to confirm that similar amounts of protein were loaded on gels. A second gel was electrophoretically transferred to a nitrocellulose membrane and the membrane incubated for one hour in blocking buffer [TBS buffer (20 mM Tris, 150 mM NaCl, pH 7.5) supplemented with 5% skim milk powder] to occupy all remaining protein-binding sites on the membrane. After blocking, the membranes were incubated for 1.5 hours at room temperature with an antibody to either caspase-3 (Santa Cruz Biotechnology, Santa Cruz, Calif., clone E-8), caspase-7 (Pharmingen Laboratories, San Diego, Calif., clone B94-1) or caspase-9 (Santa Cruz Biotechnology, Santa Cruz, Calif., clone C-17). Both antibodies were diluted 1:500 in blocking buffer containing 0.1% Tween 20. The primary antibody was then discarded and the membrane washed exhaustively with TBST (TBS buffer supplemented with 0.1% Tween 20). […]
(A western blot detects proteins with antibodies after separation by electrophoresis.)

The test system of data set [4] is procaspase-9. The data set is described as above. The format is cell-based, human. The following applies: 24 h, 9 nM doxorubicin or 0.56 nM paclitaxel. As for the experimental part: as §4, §5
For data set [5], the system named is MCF-7 cells. Nature of the data set: Clonogenic assay, drug-sensitive parental cells. As to conditions: for IC50: Homo sapiens.
Data set [6] concerns MCF-7 cells. The experiment in a line: Selection of MCF-7 cells in increasing drug concentrations (maximally tolerated dose). The following applies: 3-fold dose steps, terminally selected. The data set is classed as cell-based, human. As for the experimental part:
Twice weekly, nonadherent (dead) cells were removed by discarding the existing medium and replacing it with fresh, drug-containing medium. […] At the end of the two-week period, all remaining viable cells were released by trypsinization, diluted 10-fold into PBS, and harvested by centrifugation. The cells were resuspended in fresh H-21 medium, with several aliquots removed for storage and future analysis. The remaining cells were incubated with drug at a concentration 3-fold higher than the previous dose. Nonadherent dead cells were again removed as described above and the process repeated until a drug dose was reached where all cells in the population were killed. Cells that grew at the maximally-tolerated drug concentrations were deemed to be “terminally selected”. The maximally-tolerated drug doses during the selection process were 0.3 μM and 6.6 nM for doxorubicin and paclitaxel, respectively.

Data set [7] concerns MCF-7DOX cells. Nature of the data set: Cellular doxorubicin uptake by flow cytometry. The following applies: 2 μM doxorubicin, steady state. In general terms: In flow cytometry, cells or beads pass a laser one at a time.
For data set [8], the system named is MCF-7TAX cells. As to conditions: 2 μM doxorubicin.
Data set [9] deals with procaspase-9. The experiment in a line: Doxorubicin treatment of PA1 ovarian cell line, procaspase-9 level. The format is cell-based. The following applies: PA1 cells.
[10] abbreviates: MCF7, read-out: IC50 (uptake concentration near the IC50).
The mark [11] stands for this setting: MCF7, read-out: concentration required to kill 50% of the cells (IC50).

Turning to `CC[C@]1(O)C[C@@H]2CN(CCc3c([nH]c4ccccc34)[C@@](C(=O)OC)(c3cc4c(cc3OC)N(C)[C@H]3[C@@](O)(C(=O)OC)[C@H](OC(C)=O)[C@]5(CC)C=CCN6CC[C@]43[C@@H]65)C2)C1` [vinblastine, Vinblastine], the “resistance factor (IC50 for MCF-7DOX cells divided by IC50 for MCF-7 cells)” value in the data set with MCF-7DOX cells [1] is recorded as “approximately 4600 fold”.

Regarding `O=P1(N(CCCl)CCCl)NCCCO1` (stereo not shown) [cyclophosphamide], the “resistance factor (IC50 for MCF-7TAX cells divided by IC50 for MCF-7 cells)” value in the data set on MCF-7TAX cells [2] is given as “Very little to no cross-resistance”.

For `COc1cccc2c1C(=O)c1c(O)c3c(c(O)c1C2=O)C[C@@](O)(C(=O)CO)C[C@@H]3O[C@H]1C[C@H](N)[C@@H](O)[C@H](C)O1` [epirubicin], in the data set on MCF-7DOX cells [1], the “resistance factor (IC50 for MCF-7DOX cells divided by IC50 for MCF-7 cells)” value is given as 124 fold. The “resistance factor (IC50 for MCF-7TAX cells divided by IC50 for MCF-7 cells)” value in the data set with MCF-7TAX cells [2] is recorded as approximately 13 fold.

Consider `CCc1c2c(nc3ccc(OC(=O)N4CCC(N5CCCCC5)CC4)cc13)-c1cc3c(c(=O)n1C2)COC(=O)[C@]3(O)CC` [irinotecan], for which the “resistance factor (IC50 for MCF-7TAX cells divided by IC50 for MCF-7 cells)” value with MCF-7TAX cells [2] is listed as “Very little to no cross-resistance”.

Regarding `N.N.[Cl][Pt][Cl]` [cisplatin], the “resistance factor (IC50 for MCF-7TAX cells divided by IC50 for MCF-7 cells)” value in the data set on MCF-7TAX cells [2] is listed as “Very little to no cross-resistance”.

For `CC(=O)O[C@H]1C(=O)[C@@]2(C)[C@H]([C@H](OC(=O)c3ccccc3)[C@]3(O)C[C@H](OC(=O)[C@H](O)[C@@H](NC(=O)c4ccccc4)c4ccccc4)C(C)=C1C3(C)C)[C@]1(OC(C)=O)CO[C@@H]1C[C@@H]2O` [paclitaxel], the “paclitaxel accumulated as percent of that in MCF-7 cells” value in the data set with MCF-7DOX cells [3] was found to be 2.5%. The “effect on procaspase-7 levels” value with procaspase-7 is recorded as “without effect”. Moreover, in the data set with procaspase-9 [4], the “effect on procaspase-9 levels” value is recorded as “no effect”. The “resistance factor (IC50 for MCF-7DOX cells divided by IC50 for MCF-7 cells)” value in the data set with MCF-7DOX cells [1] was 4,700 fold and > 4,000 fold. Also, the “resistance factor (IC50 for MCF-7TAX cells divided by IC50 for MCF-7 cells)” value with MCF-7TAX cells [2] was 42 fold. Besides, the IC50 in the data set on MCF-7 cells [5] (setting [10]) was approximately 10 nM; with MCF-7 cells [5] (setting [11]) it was 0.56 nM. The “maximally-tolerated drug dose during the selection process” value in the data set with MCF-7 cells [6] is on record as 6.6 nM.

In the case of `CN(Cc1cnc2nc(N)nc(N)c2n1)c1ccc(C(=O)N[C@@H](CCC(=O)O)C(=O)O)cc1` [methotrexate], in the data set with MCF-7TAX cells [2], the “resistance factor (IC50 for MCF-7TAX cells divided by IC50 for MCF-7 cells)” value is recorded as “Very little to no cross-resistance”.

Regarding `COc1cccc2c1C(=O)c1c(O)c3c(c(O)c1C2=O)C[C@@](O)(C(=O)CO)C[C@@H]3O[C@H]1C[C@H](N)[C@H](O)[C@H](C)O1` [doxorubicin, Doxorubicin], in the data set on MCF-7DOX cells [7], the “reduction of doxorubicin accumulation compared to MCF-7 cells” value is listed as 91.4%. Also, in the data set with MCF-7TAX cells [8], the “doxorubicin uptake as percent of uptake in MCF-7 cells” value was 68.6%. The “effect on procaspase-9 levels” value with procaspase-9 [9] was “decrease in procaspase-9 levels”; with procaspase-9 [4], “elevated levels”. Besides, in the data set with procaspase-7, the “effect on procaspase-7 levels” value is on record as “upregulated”. The “resistance factor (IC50 for MCF-7DOX cells divided by IC50 for MCF-7 cells)” value in the data set with MCF-7DOX cells [1] was 52 fold. In the data set with MCF-7 cells [5] (setting [11]), the IC50 turned out to be 9 nM. Also, in the data set on MCF-7 cells [6], the “maximally-tolerated drug dose during the selection process” value was 300 nM.

`C/C=C/C[C@@H](C)C(=O)[C@H]1C(=O)N[C@@H](C(C)C)C(=O)N(C)CC(=O)N(C)[C@@H](CC(C)C)C(=O)N[C@@H](C(C)C)C(=O)N(C)[C@@H](CC(C)C)C(=O)N[C@@H](C)C(=O)N[C@H](C)C(=O)N(C)[C@@H](CC(C)C)C(=O)N(C)[C@@H](CC(C)C)C(=O)N(C)[C@@H](C(C)C)C(=O)N1C` [valspodar]: the “concentration tolerated without resulting in cell killing” value in the data set with MCF-7DOX cells [1] (MCF-7DOX cells) and with MCF-7TAX cells [2] (MCF-7TAX cells) was “up to 10 μM” in each case. In addition, the “effect on 5-fluorouracil sensitivity” value in the data set on MCF-7 cells [5] (MCF-7 cells) is reported as “no effect”. The “maximum amount which could be added without inducing significant cytotoxicity” value with MCF-7 cells [5] (MCF-7 cells, one hour at 37° C.) is on record as “Two”. The “effect on cell viability” value with MCF-7 cells [5] (non-expressing MCF-7 cells, 2 μM valspodar (data not shown)) is listed as “only a slight effect”.

As to `CC(=O)O[C@@]12CO[C@@H]1C[C@H](O)[C@@]1(C)C(=O)[C@H](O)C3=C(C)[C@@H](OC(=O)[C@H](O)[C@@H](NC(=O)OC(C)(C)C)c4ccccc4)C[C@@](O)([C@@H](OC(=O)c4ccccc4)[C@H]21)C3(C)C` [docetaxel], the “resistance factor (IC50 for MCF-7DOX cells divided by IC50 for MCF-7 cells)” value with MCF-7DOX cells [1] was 14,600 fold. The “resistance factor (IC50 for MCF-7TAX cells divided by IC50 for MCF-7 cells)” value in the data set on MCF-7TAX cells [2] was 46 fold.

In the case of `COc1cc([C@@H]2c3cc4c(cc3[C@@H](O[C@@H]3O[C@@H]5CO[C@@H](C)O[C@H]5[C@H](O)[C@H]3O)[C@H]3COC(=O)[C@H]23)OCO4)cc(OC)c1O` [etoposide], the “resistance factor (IC50 for MCF-7DOX cells divided by IC50 for MCF-7 cells)” value in the data set on MCF-7DOX cells [1] was 31 fold. For the same compound, the “resistance factor (IC50 for MCF-7TAX cells divided by IC50 for MCF-7 cells)” value in the data set with MCF-7TAX cells [2] is given as “Very little to no cross-resistance”.

For the compound `O=c1[nH]cc(F)c(=O)[nH]1` [5-fluorouracil], in the data set on MCF-7TAX cells [2], the “resistance factor (IC50 for MCF-7TAX cells divided by IC50 for MCF-7 cells)” value came to 13 fold. Moreover, the IC50 in the data set with MCF-7 cells [5] (setting [10]) is approximately 1000 nM.
